Residues, ends and D or L forms follow the SMILES beside them.
Assays:
[1] = In vitro stability in simulated intestinal fluid (mouse intestinal wash); assay type: in vitro ADME; conditions: 120 μL of 5 mM DMSO stock in 1080 μL, 37°C, 0-1440 min, HPLC-UV 220 nm, n = 3
Experimental: (§1) The samples were analyzed at 40°C on a Phenomenex Lichrosorb RP8 C8 column (4.0 mm × 250 mm, 5 μm), using the gradient elution method on an Agilent HPLC system (Agilent Technologies, Cheadle, UK) equipped with an 1100 series degasser, quaternary pump, autosampler, and column heater, and attached to an Agilent 1200 series PDA detector and a 1250 series fluorescent detector. The flow rate was set at 1.2 mL min^-1, and the injection volume was set at 40 μL, while detection was performed at 220 nm. The mobile phase was a mixture of mobile phase A (0.1% TFA in water) and phase B (0.08% TFA in acetonitrile), and in the first 5 min, the mobile phase was an 8:2 ratio of A:B (v/v) and from 5 to 15 min the percentage of B was raised from 8:2 to 1:9 (v/v). Linear calibration curves were constructed for both peptides between 0.1–100 μg.mL^−1. The retention time for the human Lau–PTEN-PDZ, mouse Lau–PTEN-PDZ, human Myr–PTEN-PDZ, and mouse Myr–PTEN-PDZ was 12.03, 11.60, 13.68, and 13.91, respectively.
The duodenum and ileum were excised from 10 non-fasted CD-1 male mice (7 weeks-old: Charles River Laboratories) that were sacrificed with CO2. Each duodenum and ileum were washed with 6 ml of phosphate buffer (50 mM, pH 6.63), and all the washes were pooled prior to centrifugation at 4000 rpm for 15 min at 4°C (Heraeus Multifuge 3sf) ([7],[15]). The intestinal wash was removed and frozen at −80°C prior to using it in stability studies without further dilution. Peptides stocks (5 mM in DMSO) were prepared and maintained at −20°C prior to performing stability studies. A stock peptide solution (120 μL) was added to the diluted pre-warmed (37°C) intestinal wash (1080 μL) with agitation at 100 rpm (Grant Aqua Waterbath), and samples (80 μL) were taken at 0, 15, 30, 45, 60, 90, 120, 180, 240, 360 and 1440 min, and diluted with ice-cold glacial acetic acid (17.5 M): acetonitrile (5:95 v/v, 80 μL) to quench the enzyme activity. Samples were vortexed and left in −80°C at least overnight to maximize protein precipitation, and after vortexing again for 15 min and centrifuging, the supernatant was analyzed by HPLC as described above.

[2] = In vitro stability in 50% liver homogenate; assay type: in vitro ADME, mouse; conditions: 37°C, HPLC-UV 220 nm, one phase decay, least square fit, n = 3
Experimental: as §1
The liver and brain of the mice were excised from […] CD-1 male mice (7 weeks-old: Charles River Laboratories) sacrificed with CO2, and the tissue was frozen immediately with liquid nitrogen prior to storage at −80°C. The liver and brain tissue were thawed and homogenized on ice in PBS (2 mL/g of tissue) using a glass 3 mL tissue homogenizer (20 strokes per sample), and the liver and brain homogenates were centrifuged (Heraeus Multifuge 3sf, Fisher Scientific, Basingstoke, UK) at 4300 g for 60 min at 4°C and at 3000 g for 20 min at 4°C, respectively. The supernatant was stored at −80°C, diluted 1:1 (v/v) with PBS (1x, pH 7.4), and used in stability studies. Peptides stocks (5 mM in DMSO) were prepared and maintained at −20°C prior to performing stability studies. These stock solutions (120 μL) were added to the diluted pre-warmed (37°C) liver or brain homogenate (50% v/v, 1080 μL) with agitation (100 rpm: Grant Aqua Waterbath), and samples (80 μL) were taken at 0, 5, 10, 15, 30, 45, 60, 90, 120, 180, 240, 360 and 1440 min, and diluted with ice-cold acetonitrile (80 μL). Samples were vortexed and left at −80°C at least overnight to allow for maximum protein precipitation, the samples were vortexed again for 15 min, centrifuged and the supernatant was analyzed by HPLC as described above.
The total protein concentration in the homogenates was determined using the Bradford protein assay ([7],[15]) and BSA as a standard. Ten stock solutions of BSA were prepared in PBS between 0.1–1 mg mL^−1, and 40 μL of each of the diluted stocks were added to 1.2 mL of Bradford reagent and incubated at room temperature for 5 min. The absorbance was recorded at 595 nm using a Multiskan GO spectrophotometer and the SkanIt software (Thermo Scientific, Paisley, UK). A linear calibration curve was obtained in this range that was used to extrapolate the protein content of 1:100 v/v stock solutions of 50% mouse plasma, liver, and brain homogenates diluted in PBS.

[3] = Simulated intestinal fluid = undiluted pooled CD-1 mouse duodenum/ileum wash, phosphate buffer pH 6.63, one phase decay fit
[4] = 50% w/v mouse liver homogenate in PBS pH 7.4

CCCCCCCCCCCCCC(=O)N[C@@H](CCC(N)=O)C(=O)N[C@@H](Cc1c[nH]cn1)C(=O)N[C@@H](CO)C(=O)N[C@@H](CCC(N)=O)C(=O)N[C@H](C(=O)N[C@H](C(=O)N[C@@H](CCCCN)C(=O)N[C@H](C(=O)O)C(C)C)[C@@H](C)O)[C@@H](C)CC [Mouse Myr-PTEN-PDZ] (HELM PEPTIDE1{[CCCCCCCCCCCCCC(=O)[*:2]].Q.H.S.Q.I.T.K.V}$$$$V2.0)
k ([1]; Simulated intestinal fluid = undiluted pooled CD-1 mouse duodenum/ileum wash in 50 mM phosphate buffer pH 6.63, 100 rpm, one phase decay, least square fit): 0.15 h⁻¹
t1/2 (h) [1, 3]: 4.52 h
t1/2 (min) [1, 3]: 271.02 min
k ([2]; 50% w/v CD-1 mouse liver homogenate in PBS pH 7.4, 120 μL of 5 mM DMSO stock in 1080 μL, 100 rpm, 0-1440 min): 0.51 h⁻¹
t1/2 (h) [2, 4]: 1.36 h
t1/2 (min) [2, 4]: 81.66 min

Reference: paper PMC7473970, “Preformulation Studies of a Stable PTEN-PDZ Lipopeptide Able to Cross an In Vitro Blood-Brain-Barrier Model as a Potential Therapy for Alzheimer’s Disease” (Pharmaceutical Research, 2020)
